Test results taken from patent publication US9120793B2, “Triazolo-pyridine compound” (Eli Lilly and Company, priority 2013, dated 2015).

Key:
[1] = biological target: T1, PPARδ (Homo sapiens, UniProt Q03181); experiment: PPARδ reporter (CTF)/functional assay in CV1 cells; format: cell-based; details: examined up to 10 μM; efficacy <20% considered negative
T1 construct: expressed in transfected cells; host or cells: CV1 (African green monkey kidney)
T1 sequence (Q03181 211-439 limits assumed): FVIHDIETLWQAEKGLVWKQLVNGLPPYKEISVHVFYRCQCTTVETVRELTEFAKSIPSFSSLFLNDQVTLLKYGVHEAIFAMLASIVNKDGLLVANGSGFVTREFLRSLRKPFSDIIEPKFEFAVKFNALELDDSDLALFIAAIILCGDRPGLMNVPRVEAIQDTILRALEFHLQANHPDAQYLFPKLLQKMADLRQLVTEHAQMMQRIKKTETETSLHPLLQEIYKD
Text: Because GPR-40 is known to be activated by ligands to PPARγ, exemplified compounds are examined in PPARα, PPARδ, and PPARγ reporter assays to determine the selectivity of an exemplified compound. CV1 cells, which are derived from the renal tissue of an African green monkey, are transfected with various receptor and reporter plasmids using Fugene. For the PPARα and PPARδ assays, a reporter plasmid containing five tandem copies of the yeast transcription protein Gal4 response element, cloned upstream of a firefly luciferase gene driven by the major late promoter of adenovirus, is transfected together with a Simian Virus 40 (SV40) driven plasmid constitutively expressing a hybrid protein containing the Gal4 DNA binding domain (DBD), and either the PPARα or PPARδ ligand binding domain. For the PPARγ assay, plasmids encoding PPARγ and RXRα, both driven by a cytomegalovirus (CMV) promoter are transfected together with a plasmid containing luciferase reporter cDNA driven by the TK promoter and a receptor response element (2×PPRE). […] After 24 hours incubation with compound, cells are lysed and luciferase activity is determined as a measure of receptor activation by luminescence. […] The maximum percent stimulation is determined versus maximum stimulation obtained with 10 μM of an appropriate PPAR agonist reference compound. […]

[2] = biological target: T2, hGPR-40 (hFFAR1) (Homo sapiens, UniProt O14842); experiment: Human beta-arrestin agonist assay with 1% FBS; format: cell-based
T2 construct: host or cells: HEK293
T2 sequence (O14842 whole entry): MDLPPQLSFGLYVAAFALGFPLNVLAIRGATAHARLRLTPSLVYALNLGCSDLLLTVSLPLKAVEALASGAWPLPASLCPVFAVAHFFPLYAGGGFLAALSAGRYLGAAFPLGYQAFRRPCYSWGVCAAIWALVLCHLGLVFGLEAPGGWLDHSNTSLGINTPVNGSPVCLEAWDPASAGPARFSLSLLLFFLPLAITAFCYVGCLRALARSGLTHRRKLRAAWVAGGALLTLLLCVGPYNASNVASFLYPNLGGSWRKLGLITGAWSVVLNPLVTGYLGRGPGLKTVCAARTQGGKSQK
T2 sequence (P32121 whole entry partner): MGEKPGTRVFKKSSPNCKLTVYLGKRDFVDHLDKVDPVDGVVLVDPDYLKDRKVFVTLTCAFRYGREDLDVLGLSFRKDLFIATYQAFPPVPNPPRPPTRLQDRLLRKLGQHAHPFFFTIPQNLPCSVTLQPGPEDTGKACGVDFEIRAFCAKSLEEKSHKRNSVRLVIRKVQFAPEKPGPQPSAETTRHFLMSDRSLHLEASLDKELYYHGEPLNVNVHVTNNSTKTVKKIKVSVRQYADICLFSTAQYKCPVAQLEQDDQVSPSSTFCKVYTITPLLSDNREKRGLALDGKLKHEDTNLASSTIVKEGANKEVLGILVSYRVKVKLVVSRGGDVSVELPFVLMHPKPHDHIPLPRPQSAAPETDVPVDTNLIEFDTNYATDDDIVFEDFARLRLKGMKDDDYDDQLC
Text: Human embryonic kidney (hEK293)-hFFAR1 cells are purchased from DiscoveRx™. Human osteosarcoma (U2OS) cells expressing mFFAR1 are developed by DiscoveRX™. These cells co-express the Prolink™ (PK)-tagged GPR-40 and the Enzyme Acceptor™ (EA)-tagged beta-arrestin fusion proteins. If activation of the GPR-40 stimulates beta-arrestin recruitment, it would force complementation of the beta galactosidase (B-gal) enzyme fragments, forming a B-gal enzyme that generates a chemiluminescent signal using the DiscoveRx PathHunter™ detection kit. Cells are incubated overnight at 5,000 cells/well in 384 well plates in culture media containing 1% FBS (fetal bovine serum). Serial diluted compound in DMSO (2× dilutions to generate 20 concentrations) are step down diluted in culture media containing 1% FBS (fetal bovine serum) and added to cells with a final top concentration starting of 100 μM. After addition of compound, cells are incubated for 90 min at 37° C. in 5% CO2 incubator, and DiscoveRX™ kit detection reagents are added. Measurement of the chemiluminescent signal is ascertained with the Envision™ reader, after a 1-hour incubation at room temperature. Data are fit to a 4 parameter-fit logistics to determine EC50 values, % activity is measured versus maximum response to an internal standard GPR-40 agonist at 1 μM.

[3] = system: Male Balb/c mice; experiment: Intraperitoneal glucose tolerance test (ipGTT); format: in vivo; parameters: key to Effect on blood glucose, statistical significance compared to vehicle during ipGTT: *P < 0.05; **P < 0.01; ****P < 0.0001; ns: not significant
Text: To examine the ability of the compound of Example 1 to activate GPR-40 in-vivo resulting in anti-diabetic efficacy, i.e. reduction in plasma glucose levels, an intraperitoneal glucose tolerance test (ipGTT) study is completed, and the data is shown for the compound of Example 1, below in Table 7.
Male Balb/c (Albino mice) mice (8-9 weeks of age) are single housed, and fed with normal rodent chow diet and water ad libitum. Animals are weighed; randomized by body weight; and their daily body weights are recorded. On the night before the study, animals are fasted overnight. In the morning, animals are dosed orally with compound of Example 1 or vehicle alone 60 minutes prior to the glucose tolerance test (glucose 2 g/kg, i.p.). Blood glucose levels are determined from tail bleeds taken at 0, 3, 7, 15, 30, and 60 min after glucose challenge. […] Percent lowering in glucose is calculated from the AUC data of the compound with respect to the AUC of vehicle group. The compound of Example 1 is orally administered at 0.1, 0.3, 1.0, 3.0, 10, or 30 mg/kg, and a positive control (3-[4-(2-methyl-benzyloxy)-phenyl]-hex-4-ynoic acid) is administered at 10 mg/kg.

functional activation of PPARδ [1]: No functional activation | EC50 ([2]; hEK293-hFFAR1 cells, 1% FBS, 90 min, read-out: hGPR-40 b-arrestin EC50): 44.8 nM | hGPR-40 b-arrestin % stimulation max (FA) ([2]; versus internal standard GPR-40 agonist at 1 μM): 128%
SMILES: CC#C[C@@H](CC(=O)O)c1ccc(OCc2ccc3nc(-c4c(C)cccc4C)nn3c2)cc1 [Example 1, (3S)-3-[4-[[2-(2,6-Dimethylphenyl)-[1,2,4]triazolo[1,5-a]pyridin-6-yl]methoxy]phenyl]hex-4-ynoic acid]
glucose levels at the 15 minute time point ([3]; 30 mg/kg dose, oral): significantly lowered | glucose levels at the 3 or 7 minute time points ([3]; Example 1 0.1-30 mg/kg oral, positive control 10 mg/kg): No concentration of compound of Example 1 or the positive control significantly lowered | glucose levels at the 30 minute time point ([3]; Example 1 1.0, 10 and 30 mg/kg doses, positive control 10 mg/kg): significantly lowered | glucose levels at the 60 minute time point ([3]; Example 1 3.0, 10 and 30 mg/kg doses, positive control 10 mg/kg): significantly lowered | ED50 ([3]; Mus musculus, oral, 60 minutes prior to glucose 2 g/kg i.p., read-out: ED50 based on AUCs for glucose lowering): 7.6 mg/kg | Effect on blood glucose, statistical significance compared to vehicle during ipGTT ([3]; dose 0.1 mpk oral, time 0 min): Ns | Effect on blood glucose, statistical significance compared to vehicle during ipGTT ([3]; dose 0.1 mpk oral, time 3 min): ns | Effect on blood glucose, statistical significance compared to vehicle during ipGTT ([3]; dose 0.1 mpk oral, time 7 min): ns | Effect on blood glucose, statistical significance compared to vehicle during ipGTT ([3]; dose 0.1 mpk oral, time 15 min): Ns | Effect on blood glucose, statistical significance compared to vehicle during ipGTT ([3]; dose 0.1 mpk oral, time 30 min): ns | Effect on blood glucose, statistical significance compared to vehicle during ipGTT ([3]; dose 0.1 mpk oral, time 60 min): ns | Effect on blood glucose, statistical significance compared to vehicle during ipGTT ([3]; dose 0.3 mpk oral, time 0 min): Ns | Effect on blood glucose, statistical significance compared to vehicle during ipGTT ([3]; dose 0.3 mpk oral, time 3 min): ns | Effect on blood glucose, statistical significance compared to vehicle during ipGTT ([3]; dose 0.3 mpk oral, time 7 min): ns | Effect on blood glucose, statistical significance compared to vehicle during ipGTT ([3]; dose 0.3 mpk oral, time 15 min): ns | Effect on blood glucose, statistical significance compared to vehicle during ipGTT ([3]; dose 0.3 mpk oral, time 30 min): ns | Effect on blood glucose, statistical significance compared to vehicle during ipGTT ([3]; dose 0.3 mpk oral, time 60 min): ns | Effect on blood glucose, statistical significance compared to vehicle during ipGTT ([3]; dose 1 mpk oral, time 0 min): Ns | Effect on blood glucose, statistical significance compared to vehicle during ipGTT ([3]; dose 1 mpk oral, time 3 min): ns | Effect on blood glucose, statistical significance compared to vehicle during ipGTT ([3]; dose 1 mpk oral, time 7 min): ns | Effect on blood glucose, statistical significance compared to vehicle during ipGTT ([3]; dose 1 mpk oral, time 15 min): ns | Effect on blood glucose, statistical significance compared to vehicle during ipGTT ([3]; dose 1 mpk oral, time 30 min): * (*P < 0.05) | Effect on blood glucose, statistical significance compared to vehicle during ipGTT ([3]; dose 1 mpk oral, time 60 min): ns | Effect on blood glucose, statistical significance compared to vehicle during ipGTT ([3]; dose 3 mpk oral, time 0 min): Ns | Effect on blood glucose, statistical significance compared to vehicle during ipGTT ([3]; dose 3 mpk oral, time 3 min): ns | Effect on blood glucose, statistical significance compared to vehicle during ipGTT ([3]; dose 3 mpk oral, time 7 min): ns | Effect on blood glucose, statistical significance compared to vehicle during ipGTT ([3]; dose 3 mpk oral, time 15 min): ns | Effect on blood glucose, statistical significance compared to vehicle during ipGTT ([3]; dose 3 mpk oral, time 30 min): ns | Effect on blood glucose, statistical significance compared to vehicle during ipGTT ([3]; dose 3 mpk oral, time 60 min): ** (**P < 0.01) | Effect on blood glucose, statistical significance compared to vehicle during ipGTT ([3]; dose 10 mpk oral, time 0 min): Ns | Effect on blood glucose, statistical significance compared to vehicle during ipGTT ([3]; dose 10 mpk oral, time 3 min): ns | Effect on blood glucose, statistical significance compared to vehicle during ipGTT ([3]; dose 10 mpk oral, time 7 min): ns | Effect on blood glucose, statistical significance compared to vehicle during ipGTT ([3]; dose 10 mpk oral, time 15 min): ns | Effect on blood glucose, statistical significance compared to vehicle during ipGTT ([3]; dose 10 mpk oral, time 30 min): **** (****P < 0.0001) | Effect on blood glucose, statistical significance compared to vehicle during ipGTT ([3]; dose 10 mpk oral, time 60 min): **** (****P < 0.0001) | Effect on blood glucose, statistical significance compared to vehicle during ipGTT ([3]; dose 30 mpk oral, time 0 min): Ns | Effect on blood glucose, statistical significance compared to vehicle during ipGTT ([3]; dose 30 mpk oral, time 3 min): ns | Effect on blood glucose, statistical significance compared to vehicle during ipGTT ([3]; dose 30 mpk oral, time 7 min): ns | Effect on blood glucose, statistical significance compared to vehicle during ipGTT ([3]; dose 30 mpk oral, time 15 min): ** (**P < 0.01) | Effect on blood glucose, statistical significance compared to vehicle during ipGTT ([3]; dose 30 mpk oral, time 30 min): **** (****P < 0.0001) | Effect on blood glucose, statistical significance compared to vehicle during ipGTT ([3]; dose 30 mpk oral, time 60 min): **** (****P < 0.0001)
